Reference: patent publication US5084441A, “Acetylated low density lipoproteins: a delivery system to phagocytic cells for stimulating immunologic response and host resistance” (priority 1988, dated 1992)

Assays:
[1] = tested on: B16F10 melanoma target cells; assay: Macrophage-mediated cytostasis ([3H]thymidine incorporation) after treating thioglycolate-elicited macrophages; settings: for % Cytostasis: effector:target 10:1
Method: ^(2) Thioglycolate-elicited macrophages were treated with different
concentrations of the complex for 24 hours, unbound complex was washed
away and B16F10 melanoma cells were added. After 24 hours, the cultures
were pulsed with [3H]thymidine and harvested after 18 hours
(effector:target ratio, 10:1).
Macrophage-mediated Cytostasis: Cytostatic activity was determined using a (^3 H) Thymidine (New England Nuclear Corp) incorporation technique (64). […] After 24 hours, the cells were washed twice with warm DMEM and cultured in DMEM (10% FCS), with 1×10^5 B16F10 melanoma target cells for 24 hours. The cells were then pulsed for 24 hours with 1 uCi of (^3 H) thymidine. Cells were harvested using a MASH cell harvester and assayed with a liquid scintillation counter. The results were expressed as a percent inhibition of (^3 H) thymidine incorporation into the B16F10 target cells (such as % cytostasis). [formula]

[2] = tested on: P815 mastocytoma target cells; assay: Macrophage-mediated cytotoxicity ([3H]thymidine release) after treating thioglycolate-elicited macrophages
Method: Macrophage-mediated cytotoxicity: Cytotoxicity was determined using a [3H] thymidine release assay. Thioglycolate-elicited macrophages were plated in 96-well flat-bottom tissue culture plates (Costar, Cambridge, Mass.) at 4×10^5 and 1×10^4 macrophage per well. […] After 24 hours, the plates were washed three times and [3H] thymidine labelled P815 tumor target cells (1×10^4) were added to each well. The total assay volume was 250 μl in DMEM with 10% FCS and the plates were incubated an additional 24 hours. After incubation, the microplates were centrifuged for 2 minutes at 250×g and a 125 μl aliquot of supernatant was removed and counted by liquid […]. Total incorporation of radioactivity was determined by adding 1×10^4 cells to 2 ml of Beckman Redissolve scintillation cocktail.
The percent specific release was calculated. [formula]
All samples were plated in triplicate and the data presented as the mean ±S.D. of triplicates.

[3] = tested on: macrophages; settings: reference 41; cited from earlier work
[4] = tested on: thioglycolate-elicited macrophages; assay: Fluorescent binding and uptake of acetyl-LDL:MTP-PE-DiI by macrophages; assay type: cell-based, mouse; settings: 30-fold excess of competitor; 30 μg acetyl-LDL:MTP-PE-DiI; 37°
Method: The binding and uptake of acetyl-LDL:MTP-PE-DiI was carried out at 37 degrees centigrade and the fluorescence intensity of cell-associated DiI recorded. The μg acetyl-LDL:MTP-PE-DiI bound was determined by knowing the quantity of DiI associated with the complex (1.34±0.76 nmol DiI/mg acetyl-LDL protein). The data points represent an average of three separate experiments.
Insert: Uptake of 30 μg of acetyl-LDL:MTP-PE-DiI and in the presence of a 30-fold excess of acetyl-LDL (a) a 30-fold excess of LDL (b) or a 30-fold excess of liposomes (c).

[5] = tested on: thioglycolate-elicited macrophages, thymocytes and X63-Ag8.653 myeloma cells; assay: Cell specificity of [125I]acetyl-LDL binding; set-up: species or system mouse
Method: Thiglycolate-elicited macrophages, thymocytes and X63-Ag8.653 myeloma cells were incubated with [^125 I] acetyl-LDL at 4 degrees centigrade in six cell tissue culture plates at […]. After 2 hours, the cells were washed five times, then lysed in 0.05% Triton X-100 and the amount of [^125 I] acetyl-LDL bound was determined.

Substance	% Cytostasis ([1]; acetyl-LDL 6.25 μg protein/ml (MTP-PE 0.62 μg/ml in complex, 0.0 alone), 24 hours)	% Cytostasis (Complex + Excess Liposomes) ([1]; acetyl-LDL 6.25 μg protein/ml (MTP-PE 0.62 or 0.0 μg/ml) in presence of excess liposomes 1.2 mg lipid/ml)	% Cytostasis ([1]; acetyl-LDL 12.5 μg protein/ml (MTP-PE 1.3 μg/ml in complex, 0.0 alone), 24 hours)	% Cytostasis (Complex + Excess Liposomes) ([1]; acetyl-LDL 12.5 μg protein/ml (MTP-PE 1.3 or 0.0 μg/ml) in presence of excess liposomes 1.2 mg lipid/ml)	% Cytostasis ([1]; acetyl-LDL 25 μg protein/ml (MTP-PE 2.5 μg/ml in complex, 0.0 alone), 24 hours)	% Cytostasis (Complex + Excess Liposomes) ([1]; acetyl-LDL 25 μg protein/ml (MTP-PE 2.5 or 0.0 μg/ml) in presence of excess liposomes 1.2 mg lipid/ml)	% Cytostasis ([1]; acetyl-LDL 50 μg protein/ml (MTP-PE 5.0 μg/ml in complex, 0.0 alone), 24 hours)	% Cytostasis (Complex + Excess Liposomes) ([1]; acetyl-LDL 50 μg protein/ml (MTP-PE 5.0 or 0.0 μg/ml) in presence of excess liposomes 1.2 mg lipid/ml)	% Cytostasis ([1]; acetyl-LDL 100 μg protein/ml (MTP-PE 9.9 μg/ml in complex, 0.0 for acetyl-LDL alone), macrophages treated 24 hours)	% Cytostasis (Complex + Excess Liposomes) ([1]; acetyl-LDL 100 μg protein/ml (MTP-PE 9.9 or 0.0 μg/ml) in presence of excess liposomes 1.2 mg lipid/ml)	Percent Cytotoxicity ([2]; effector to target cell ratio 1:1, same amounts per well)	Percent Cytotoxicity ([2]; effector to target cell ratio 5:1, same amounts per well)	Percent Cytotoxicity ([2]; effector to target cell ratio 10:1, same amounts per well)	Percent Cytotoxicity ([2]; effector to target cell ratio 20:1, same amounts per well)	Percent Cytotoxicity ([2]; effector to target cell ratio 40:1, per well: complex 18.0 ug protein containing 3.6 ug MTP-PE, free MTP-PE 3.6 ug, acetyl-LDL 18.0 ug protein)	rate of uptake and degradation by macrophages relative to LDL [3]	competition with uptake of DiI-labeled acetyl-LDL:MTP-PE complex [4]	binding to myeloma cell line (B-lymphocyte) and thymocytes (T-lymphocytes) [5]
Acetyl-LDL: human plasma LDL exhaustively acetylated with acetic anhydride at apoprotein B lysine residues; the carrier alone	≤ 5%	≤ 5%	< 5%	≤ 5%	25 ± 12%	≤ 5%	< 5%	≤ 5%	< 5%	≤ 5%	0.5 ± 1%	4.5 ± 4%	4 ± 2%	6 ± 2%	3 ± 3%	approximately twenty-fold greater	effective competitive inhibitor	only low levels of binding
LDL: native unmodified human plasma low density lipoprotein	–	–	–	–	–	–	–	–	–	–	–	–	–	–	–	–	negligible to moderate competition	–
